From patent US6627411B2, “Method for evaluating matrix metalloprotease inhibitory activity” (Shionogi & Co., Ltd., priority 1999, dated 2003)

Experiments:
MMP-9 = MMP-9 (Homo sapiens, UniProt P14780); test: MMP inhibitory activity IC50, MMP-9; assay type: biochemical
MMP-1 = target: T1, MMP-1 (Homo sapiens, UniProt P03956); test: MMP inhibitory activity IC50, MMP-1; assay type: biochemical
T1 sequence (P03956 100-469): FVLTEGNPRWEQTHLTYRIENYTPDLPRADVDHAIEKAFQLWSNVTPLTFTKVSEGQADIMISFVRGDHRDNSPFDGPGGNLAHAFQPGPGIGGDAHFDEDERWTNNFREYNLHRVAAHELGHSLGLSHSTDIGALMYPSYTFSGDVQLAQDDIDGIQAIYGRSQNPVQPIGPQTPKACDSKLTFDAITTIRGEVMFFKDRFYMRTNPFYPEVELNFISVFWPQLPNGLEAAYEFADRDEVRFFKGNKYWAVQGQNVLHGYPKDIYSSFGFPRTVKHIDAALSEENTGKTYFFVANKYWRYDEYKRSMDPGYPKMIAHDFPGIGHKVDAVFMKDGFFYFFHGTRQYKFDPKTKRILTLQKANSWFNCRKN

MMP-7 = target: T2, MMP-7 (Homo sapiens, UniProt P09237); test: MMP inhibitory activity IC50, MMP-7; assay type: biochemical
T2 sequence (P09237 95-267): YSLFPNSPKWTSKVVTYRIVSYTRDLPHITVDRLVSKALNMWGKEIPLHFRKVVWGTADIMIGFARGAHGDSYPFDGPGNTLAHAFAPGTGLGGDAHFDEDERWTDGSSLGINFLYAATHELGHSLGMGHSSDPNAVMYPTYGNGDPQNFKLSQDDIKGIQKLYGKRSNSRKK

[1] = system: gelatin degradation in cancer tissue (human lung cancer cell line Ma44); test: In situ zymography of tumor mass from Ma44-bearing nude mice after oral administration; assay type: in vivo; conditions: for Quantitative analysis using Optimas Ver.6 (brightness in each tissue/size in each tissue): 200 mg/kg orally, two hours after administration, vehicle 49.2; for inhibition of the gelatin degradation: nude mice; for Quantitative analysis using Optimas Ver.6: vehicle 53.4
Experimental: Fifteen g of acid-treated swine cutis gelatin was dissolved in 123 g of pure water, and the solution was added with 1.2 ml of 1,2-bis(vinylsulfonylacetamido)ethane (4%) as a hardening agent. The solution was uniformly applied to a polyethylene terephthalate film undercoated with gelatin so as to obtain a dried membrane having a thickness of about 7 μm, and the membrane was dried to obtain a gelatin thin membrane. The gelatin thin membrane was stored at room temperature until the use.
Human lung cancer cell line Ma44 (CANCER RESEARCH 59, 1231-35 (1999)) that was known to produce MMP-2 in a large amount was used. Nude mice (six weeks aged, female, CLEA Japan, Inc.) were transplanted intraperitoneally with 1×10^5 Ma44 cells, and, 14 days later, BPHA or (−)BPHA was administered orally to the animals at 200 mg/kg. As control, a vehicle (a physiological saline containing 0.4% Tween80, 0.5% carboxymethyl cellulose, and 0.9% benzyl alcohol) was similarly administered. Two hours after the administration, the cancer-bearing mice were autopsied to remove the tumor mass formed at the abdominal wall and the mesenterium, and the mass was subjected to the in situ zymography experiment.
The tumor mass was embedded in OCT Compound (SAKURA), and then Microtone/Cryostat TISSUE TEK II (Miles-Sankyo) was used to prepare […] having a thickness of 8 μm. The […] were placed gently onto the gelatin thin membrane previously prepared to give samples, and then the membranes were placed into a humid bath to prevent them from drying, followed by leaving the membranes to stand in an incubator at 37° C. After reacted for 3.5 hours, the thin membranes were taken out, and stained with a 1% Amido Black solution (Wako Pure Chemical Industries) for 15 minutes. Subsequently, the membranes were treated with a decolorizing solution (70% methanol, 10% acetic acid) for 10 minutes.
The cancer tissue on the thin membrane was observed under light microscopy to determine the area where the gelatin degradation was recognized. Additionally, the slide scanner (Nikon 35 mm film scanner: COOLSCAN II) was used to analyze quantitatively the tone with the software Optimas Ver.6 (Optimas Corporation).
was orally administered at dosages of 0.2, 2.0, 20.0, and 200.0 mg/kg in stead of the administrations of BPHA and (−)BPHA, treatments were conducted for in situ zymography.

MMP-3 = MMP-3 (Homo sapiens, UniProt P08254); test: MMP inhibitory activity IC50, MMP-3; assay type: biochemical
MMP-2 = target: T3, MMP-2 (Homo sapiens, UniProt P08253); test: MMP inhibitory activity IC50, MMP-2; assay type: biochemical
T3 sequence (P08253 110-660): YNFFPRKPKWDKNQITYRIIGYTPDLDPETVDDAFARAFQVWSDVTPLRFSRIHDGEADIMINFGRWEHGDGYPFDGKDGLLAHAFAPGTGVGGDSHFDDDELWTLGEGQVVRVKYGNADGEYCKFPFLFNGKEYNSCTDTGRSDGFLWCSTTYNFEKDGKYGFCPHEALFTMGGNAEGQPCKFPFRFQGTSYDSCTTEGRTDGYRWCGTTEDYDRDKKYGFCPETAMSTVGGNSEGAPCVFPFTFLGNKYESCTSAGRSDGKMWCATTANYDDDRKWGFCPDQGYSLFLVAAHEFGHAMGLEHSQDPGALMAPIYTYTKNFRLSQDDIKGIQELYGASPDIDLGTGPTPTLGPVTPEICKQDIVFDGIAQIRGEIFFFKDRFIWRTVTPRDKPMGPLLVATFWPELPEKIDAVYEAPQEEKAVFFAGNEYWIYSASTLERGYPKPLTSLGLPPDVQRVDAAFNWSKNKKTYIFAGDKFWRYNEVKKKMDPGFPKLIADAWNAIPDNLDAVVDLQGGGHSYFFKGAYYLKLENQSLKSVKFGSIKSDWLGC

MMP-14 = MMP-14 (Homo sapiens, UniProt P50281); test: MMP inhibitory activity IC50, MMP-14; assay type: biochemical

Chain of MMP-3 (P08254 100-477, species assumed): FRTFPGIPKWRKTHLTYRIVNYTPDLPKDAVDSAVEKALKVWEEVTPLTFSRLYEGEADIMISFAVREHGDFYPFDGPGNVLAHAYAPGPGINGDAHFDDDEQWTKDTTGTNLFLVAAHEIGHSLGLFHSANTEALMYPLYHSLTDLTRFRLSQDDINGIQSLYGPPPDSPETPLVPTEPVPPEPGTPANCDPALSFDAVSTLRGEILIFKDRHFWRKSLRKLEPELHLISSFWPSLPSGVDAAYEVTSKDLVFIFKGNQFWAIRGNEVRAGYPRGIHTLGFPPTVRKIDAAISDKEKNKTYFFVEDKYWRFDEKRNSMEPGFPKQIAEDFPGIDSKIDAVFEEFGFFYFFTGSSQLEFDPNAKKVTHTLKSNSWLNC
Chain of MMP-9 (P14780 94-707, species assumed): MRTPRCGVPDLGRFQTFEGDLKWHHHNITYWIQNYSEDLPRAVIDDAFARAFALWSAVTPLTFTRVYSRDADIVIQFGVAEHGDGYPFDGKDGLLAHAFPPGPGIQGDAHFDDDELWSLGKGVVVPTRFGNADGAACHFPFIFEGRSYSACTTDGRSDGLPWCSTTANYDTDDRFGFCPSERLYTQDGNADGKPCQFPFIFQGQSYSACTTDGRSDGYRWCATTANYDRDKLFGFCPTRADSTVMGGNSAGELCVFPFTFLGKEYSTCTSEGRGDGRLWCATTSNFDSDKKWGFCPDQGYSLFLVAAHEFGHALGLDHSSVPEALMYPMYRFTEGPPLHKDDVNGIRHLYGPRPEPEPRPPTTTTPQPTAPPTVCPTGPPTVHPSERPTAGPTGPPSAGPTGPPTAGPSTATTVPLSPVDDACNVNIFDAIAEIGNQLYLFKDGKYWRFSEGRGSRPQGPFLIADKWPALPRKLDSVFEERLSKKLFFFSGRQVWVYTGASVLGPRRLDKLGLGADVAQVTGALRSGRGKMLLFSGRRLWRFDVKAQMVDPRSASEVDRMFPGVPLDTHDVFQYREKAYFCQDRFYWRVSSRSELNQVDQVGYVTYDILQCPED

IC50 (MMP-9)	IC50 (MMP-1)	IC50 (MMP-7)	IC50 (MMP-3)	IC50 (MMP-2)	IC50 (MMP-14)	Compound	Quantitative analysis using Optimas Ver.6 (brightness in each tissue/size in each tissue) [1]	inhibition of the gelatin degradation ([1]; 0.2 mg/kg orally)	Quantitative analysis using Optimas Ver.6 ([1]; 0.2 mg/kg orally)	Quantitative analysis using Optimas Ver.6 ([1]; 2.0 mg/kg orally)	Quantitative analysis using Optimas Ver.6 ([1]; 20.0 mg/kg orally)	inhibition of the gelatin degradation ([1]; 200.0 mg/kg orally)	Quantitative analysis using Optimas Ver.6 ([1]; 200.0 mg/kg orally)	inhibition of the gelatin degradation ([1]; 20.0 to 2.0 mg/kg orally)
> 1000 nM	> 1000 nM	> 1000 nM	> 1000 nM	> 1000 nM	> 1000 nM	O=C(NO)[C@H](Cc1ccccc1)NS(=O)(=O)c1ccc(-c2ccccc2)cc1 [(−)BPHA]	40.1	–	–	–	–	–	–	–
–	–	–	–	–	–	O=C(O)[C@@H](Cc1c[nH]c2ccccc12)NS(=O)(=O)c1ccc(-c2nnn(-c3ccccc3)n2)cc1 [MMI-166]	–	merely partial inhibition	41.3	28.6	13.7	complete inhibition of the gelatin degradation	5.3	the inhibition was lowered in sequence
16 nM	974 nM	795 nM	> 1000 nM	12 nM	17 nM	O=C(NO)[C@@H](Cc1ccccc1)NS(=O)(=O)c1ccc(-c2ccccc2)cc1 [BPHA]	8.6	–	–	–	–	–	–	–
